Columns and labels:
Format in all cases: cell-based
elastin = test: Extracellular matrix expression by immunofluorescence (confocal, Image J): elastin; settings: human dermal fibroblasts; peptide at 10 µM, 50 µM or 100 µM, 48 hours; green fluorescence intensity; maximum increase (FIG. 2)
Method: (§1) To confirm the effect of a peptide consisting of the amino acid sequence of SEQ ID NO: 1 on increasing the expression of the dermal extracellular matrix. Specifically, human dermal fibroblasts were seeded in a 6-well plate at a density of 3x10^5 cells/well and cultured for 24 hours. After replacing with serum-free mesenchymal stem cell medium, the cells were cultured for 24 hours. A peptide was treated at concentrations of 10 µM, 50 µM, or 100 µM, respectively, and incubated at 37 °C for 48 hours. Human recombinant FGF protein was treated at 100 nM. After the culture was completed, the culture supernatant was removed and fixed with 4 % paraformaldehyde for 30 minutes. After washing with PBS, the cells were reacted with 0.5 % Triton X-100 for 15 minutes. After reacting with 3 % BSA for 1 hour, primary antibodies against collagen type 1, fibronectin, and elastin were diluted 1:100 and reacted overnight at 4 °C. Secondary antibody-FITC was diluted 1:500 and reacted at room temperature for 2 hours, followed by DAPI staining and mounting. The expression images of each marker were observed using a confocal microscope (Leica, Germany). Green fluorescence intensity was measured using Image J.
(§2) The results are illustrated in FIG. 2. […]

collagen type 1 = test: Extracellular matrix expression by immunofluorescence (confocal, Image J): collagen type 1; settings: human dermal fibroblasts; peptide at 10 µM, 50 µM or 100 µM, 48 hours; green fluorescence intensity; maximum increase (FIG. 2)
Method: as §1, §2

human dermal fibroblasts = test: Fibroblast proliferation effect (SRB staining, absorbance at 560 nm); settings: peptide at 10 µM, 50 µM or 100 µM, 72 hours, 37 °C, concentration-dependent, maximum increase (FIG. 1)
Method: To confirm the effect of a peptide consisting of the amino acid sequence of SEQ ID NO: 1 on promoting the proliferation of Fibroblasts. Specifically, human dermal fibroblasts were seeded in a 96-well plate at a density of 5x10^3 cells/well and cultured for 24 hours. After replacing with serum-free mesenchymal stem cell medium, the cells were cultured for 24 hours. The above peptide was treated at concentrations of 10 µM, 50 µM, or 100 µM, respectively, and incubated at 37 °C for 72 hours. As a positive control group, 50 nM of human recombinant FGF protein was treated. After completion of culturing, the culture supernatant was removed and the cells were fixed using ethanol. After washing with PBS, staining was performed by treating with SRB solution. After washing with 1 % acetic acid, cells were observed under a microscope and destained by treating with 20 mM tris solution. Cell viability was measured by measuring absorbance at a wavelength of 560 nm using a spectrophotometer (SpectraMax iD3, Molecular Devices (USA, CA)).
The results are illustrated in FIG. 1. From the results of FIG. 1, it may be confirmed that proliferation was induced in a concentration-dependent manner in the peptide treatment group, increasing by up to 1.62 times.

fibronectin = test: Extracellular matrix expression by immunofluorescence (confocal, Image J): fibronectin; settings: human dermal fibroblasts; peptide at 10 µM, 50 µM or 100 µM, 48 hours; green fluorescence intensity; maximum increase (FIG. 2)
Method: as §1, §2

AERRREKCRC [peptide]
elastin expression increase compared to the control group (elastin): up to 2 times
collagen type 1 expression increase compared to the control group (collagen type 1): up to 1.32 times
proliferation increase (human dermal fibroblasts): up to 1.62 times
fibronectin expression increase compared to the control group (fibronectin): up to 1.38 times
